Experimental data: the supplement of paper PMC6965134
Each block holds one molecule with its values, some of them ahead of it.

Experiment: TIMS collisional cross section (CCS, N2) of the lipid ion; higher = larger ion cross section
Conditions: ionization mode: positive, one isomer drawn

Structure (SMILES): CCCCCCCC/C=C\CCCCCCCC(=O)OC[C@H](COC(=O)CCCCCCCCCCCCCCCCCCCCC)OC(=O)CCCCCCCCCCCCCCCCCC [TG 18:1_19:0_22:0] (ion (formula + adduct): [C62H118O6+NH4] 1+)
TIMS collisional cross section (sample type: Liver): 344.9 Å²

Structure (SMILES): CC/C=C\C/C=C\C/C=C\C/C=C\C/C=C\C/C=C\CCC(=O)OC[C@@H](COC(=O)CCCCCCC/C=C\CCCCCCCC)OC(=O)CCCCCCC/C=C\CCCCCCCCC [TG 18:1_19:1_22:6] (ion (formula + adduct): [C62H104O6+NH4] 1+)
TIMS collisional cross section (sample type: HeLa): 334.6 Å²

Structure (SMILES): CCCCCCCC/C=C\CCCCCCCC(=O)OC[C@H](COC(=O)CCCCCCCCCCCCCCCCCCCC)OC(=O)CCCCCCCCCCCCCCCCCCC [TG 18:1_20:0_21:0] (ion (formula + adduct): [C62H118O6+NH4] 1+)
TIMS collisional cross section (sample type: HeLa): 344.2 Å²

Structure (SMILES): CCCCCCCC/C=C\CCCCCCCC(=O)OC[C@H](COC(=O)CCCCCCCCCCCCCCCCCCCCC)OC(=O)CCCCCCCCCCCCCCCCCCC [TG 18:1_20:0_22:0] (ion (formula + adduct): [C63H120O6+NH4] 1+)
TIMS collisional cross section (sample type: HeLa): 346.3 Å²
TIMS collisional cross section (sample type: plasma): 347.4 Å²

Structure (SMILES): CCCCC/C=C\C/C=C\C/C=C\CCCCCCC(=O)OC[C@@H](COC(=O)CCCCCCC/C=C\CCCCCCCC)OC(=O)CCCCCCCCC/C=C\CCCCCCCC [TG 18:1_20:1_20:3] (ion (formula + adduct): [C61H108O6+NH4] 1+)
TIMS collisional cross section (sample type: HeLa): 336.4 Å²

Structure (SMILES): CCCCCCCC/C=C\CCCCCCCCCC(=O)O[C@H](COC(=O)CCCCCCC/C=C\CCCCCCCC)COC(=O)CCCCCCCCCCCCCCCCCCCC [TG 18:1_20:1_21:0] (ion (formula + adduct): [C62H116O6+NH4] 1+)
TIMS collisional cross section (sample type: Liver): 342.9 Å²

Structure (SMILES): CCCCCCCC/C=C\CCCCCCCCCC(=O)O[C@H](COC(=O)CCCCCCC/C=C\CCCCCCCC)COC(=O)CCCCCCCCCCCCCCCCCCCCC [TG 18:1_20:1_22:0] (ion (formula + adduct): [C63H118O6+NH4] 1+)
TIMS collisional cross section (sample type: HeLa): 344.7 Å²
TIMS collisional cross section (sample type: Liver): 345.8 Å²

Structure (SMILES): CCCCCCCC/C=C\CCCCCCCCCCCC(=O)OC[C@@H](COC(=O)CCCCCCC/C=C\CCCCCCCC)OC(=O)CCCCCCCCC/C=C\CCCCCCCC [TG 18:1_20:1_22:1] (ion (formula + adduct): [C63H116O6+NH4] 1+)
TIMS collisional cross section (sample type: Liver): 342.9 Å²
TIMS collisional cross section (sample type: plasma): 343 Å²

Structure (SMILES): CCCCC/C=C\C/C=C\C/C=C\C/C=C\CCCCCC(=O)OC[C@@H](COC(=O)CCCCCCC/C=C\CCCCCCCC)OC(=O)CCCCCCCCC/C=C\CCCCCCCC [TG 18:1_20:1_22:4] (ion (formula + adduct): [C63H110O6+NH4] 1+)
TIMS collisional cross section (sample type: HeLa): 338.9 Å²

Structure (SMILES): CC/C=C\C/C=C\C/C=C\C/C=C\C/C=C\CCCCCC(=O)OC[C@@H](COC(=O)CCCCCCC/C=C\CCCCCCCC)OC(=O)CCCCCCCCC/C=C\CCCCCCCC [TG 18:1_20:1_22:5] (ion (formula + adduct): [C63H108O6+NH4] 1+)
TIMS collisional cross section (sample type: Liver): 337.9 Å²

Structure (SMILES): CC/C=C\C/C=C\C/C=C\C/C=C\C/C=C\C/C=C\CCC(=O)OC[C@@H](COC(=O)CCCCCCC/C=C\CCCCCCCC)OC(=O)CCCCCCCCC/C=C\CCCCCCCC [TG 18:1_20:1_22:6] (ion (formula + adduct): [C63H106O6+NH4] 1+)
TIMS collisional cross section (sample type: HeLa): 336.5 Å²

Structure (SMILES): CCCCC/C=C\C/C=C\C/C=C\C/C=C\CCCC(=O)O[C@H](COC(=O)CCCCCCC/C=C\CCCCCCCC)COC(=O)CCCCCCCCCCC/C=C\CCCCCCCC [TG 18:1_20:4_22:1] (ion (formula + adduct): [C63H110O6+NH4] 1+)
TIMS collisional cross section (sample type: Liver): 339.9 Å²

Structure (SMILES): CC/C=C\C/C=C\C/C=C\C/C=C\C/C=C\CCCCCC(=O)OC[C@@H](COC(=O)CCCCCCC/C=C\CCCCCCCC)OC(=O)CCC/C=C\C/C=C\C/C=C\C/C=C\CCCCC [TG 18:1_20:4_22:5] (ion (formula + adduct): [C63H102O6+NH4] 1+)
TIMS collisional cross section (sample type: HeLa): 333.4 Å²

Structure (SMILES): CC/C=C\C/C=C\C/C=C\C/C=C\C/C=C\C/C=C\CCC(=O)OC[C@@H](COC(=O)CCCCCCC/C=C\CCCCCCCC)OC(=O)CCC/C=C\C/C=C\C/C=C\C/C=C\CCCCC [TG 18:1_20:4_22:6] (ion (formula + adduct): [C63H100O6+NH4] 1+)
TIMS collisional cross section (sample type: plasma): 332.5 Å²

Structure (SMILES): CC/C=C\C/C=C\C/C=C\C/C=C\C/C=C\C/C=C\CCC(=O)OC[C@@H](COC(=O)CCCCCCC/C=C\CCCCCCCC)OC(=O)CCCCCCCCCCCCCCCCCCCCC [TG 18:1_22:0_22:6] (ion (formula + adduct): [C65H112O6+NH4] 1+)
TIMS collisional cross section (sample type: Liver): 344.7 Å²

Structure (SMILES): CCCCCCCC/C=C\CCCCCCCCCCCC(=O)OC[C@@H](COC(=O)CCCCCCC/C=C\CCCCCCCC)OC(=O)CCCCCCCCCCC/C=C\CCCCCCCC [TG 18:1_22:1_22:1] (ion (formula + adduct): [C65H120O6+NH4] 1+)
TIMS collisional cross section (sample type: HeLa): 349.2 Å²

Structure (SMILES): CCCCC/C=C\C/C=C\CCCCCCCCCCCC(=O)OC[C@@H](COC(=O)CCCCCCC/C=C\CCCCCCCC)OC(=O)CCCCCCCCCCC/C=C\CCCCCCCC [TG 18:1_22:1_22:2] (ion (formula + adduct): [C65H118O6+NH4] 1+)
TIMS collisional cross section (sample type: Liver): 346.9 Å²

Structure (SMILES): CC/C=C\C/C=C\C/C=C\C/C=C\C/C=C\C/C=C\CCC(=O)OC[C@@H](COC(=O)CCCCCCC/C=C\CCCCCCCC)OC(=O)CCCCCCCCCCC/C=C\CCCCCCCC [TG 18:1_22:1_22:6] (ion (formula + adduct): [C65H110O6+NH4] 1+)
TIMS collisional cross section (sample type: Liver): 342.5 Å²

Structure (SMILES): C(OC(=O)CCCCCCC/C=C\C/C=C\CCCCC)[C@]([H])(OC(CCCCCCC/C=C\C/C=C\CCCCC)=O)COC(CCCCCCC/C=C\C/C=C\CCCCC)=O [TG 18:2_18:2_18:2] (ion (formula + adduct): [C57H98O6+NH4] 1+)
TIMS collisional cross section (sample type: Liver): 321.8 Å²

Results, then the molecule that gave them:

TIMS collisional cross section (sample type: plasma): 317.6 Å²
Structure (SMILES): CC/C=C\C/C=C\C/C=C\CCCCCCCC(=O)OC[C@@H](COC(=O)CCCCCCC/C=C\C/C=C\CCCCC)OC(=O)CCCCCCC/C=C\C/C=C\CCCCC [TG 18:2_18:2_18:3] (ion (formula + adduct): [C57H96O6+NH4] 1+)

TIMS collisional cross section (sample type: Liver): 325.1 Å²
Structure (SMILES): CCCCC/C=C\C/C=C\CCCCCCCC(=O)OC[C@H](COC(=O)CCCCCCC/C=C\CCCCCCCCC)OC(=O)CCCCCCC/C=C\C/C=C\CCCCC [TG 18:2_18:2_19:1] (ion (formula + adduct): [C58H102O6+NH4] 1+)

TIMS collisional cross section (sample type: Liver): 323.3 Å²
Structure (SMILES): CCCCC/C=C\C/C=C\C/C=C\C/C=C\CCCC(=O)OC[C@@H](COC(=O)CCCCCCC/C=C\C/C=C\CCCCC)OC(=O)CCCCCCC/C=C\C/C=C\CCCCC [TG 18:2_18:2_20:4] (ion (formula + adduct): [C59H98O6+NH4] 1+)

TIMS collisional cross section (sample type: Liver): 327.9 Å²
Structure (SMILES): CC/C=C\C/C=C\C/C=C\C/C=C\C/C=C\CCCCCC(=O)OC[C@@H](COC(=O)CCCCCCC/C=C\C/C=C\CCCCC)OC(=O)CCCCCCC/C=C\C/C=C\CCCCC [TG 18:2_18:2_22:5] (ion (formula + adduct): [C61H100O6+NH4] 1+)

TIMS collisional cross section (sample type: Liver): 327.3 Å²
TIMS collisional cross section (sample type: plasma): 327 Å²
Structure (SMILES): CC/C=C\C/C=C\C/C=C\C/C=C\C/C=C\C/C=C\CCC(=O)OC[C@@H](COC(=O)CCCCCCC/C=C\C/C=C\CCCCC)OC(=O)CCCCCCC/C=C\C/C=C\CCCCC [TG 18:2_18:2_22:6] (ion (formula + adduct): [C61H98O6+NH4] 1+)

TIMS collisional cross section (sample type: Liver): 314.3 Å²
Structure (SMILES): CC/C=C\C/C=C\C/C=C\C/C=C\CCCCC(=O)OC[C@@H](COC(=O)CCCCCCC/C=C\C/C=C\CCCCC)OC(=O)CCCC/C=C\C/C=C\C/C=C\CCCCC [TG 18:2_18:3_18:4] (ion (formula + adduct): [C57H92O6+NH4] 1+)

TIMS collisional cross section (sample type: Liver): 321.6 Å²
TIMS collisional cross section (sample type: plasma): 321.6 Å²
Structure (SMILES): CC/C=C\C/C=C\C/C=C\CCCCCCCC(=O)O[C@@H](COC(=O)CCC/C=C\C/C=C\C/C=C\C/C=C\CCCCC)COC(=O)CCCCCCC/C=C\C/C=C\CCCCC [TG 18:2_18:3_20:4] (ion (formula + adduct): [C59H96O6+NH4] 1+)

TIMS collisional cross section (sample type: Liver): 319.5 Å²
Structure (SMILES): CC/C=C\C/C=C\C/C=C\C/C=C\C/C=C\CCCC(=O)OC[C@@H](COC(=O)CCCCCCC/C=C\C/C=C\CCCCC)OC(=O)CCCCCCC/C=C\C/C=C\C/C=C\CC [TG 18:2_18:3_20:5] (ion (formula + adduct): [C59H94O6+NH4] 1+)

TIMS collisional cross section (sample type: Liver): 324.9 Å²
Structure (SMILES): CC/C=C\C/C=C\C/C=C\C/C=C\C/C=C\C/C=C\CCC(=O)OC[C@@H](COC(=O)CCCCCCC/C=C\C/C=C\CCCCC)OC(=O)CCCCCCC/C=C\C/C=C\C/C=C\CC [TG 18:2_18:3_22:6] (ion (formula + adduct): [C61H96O6+NH4] 1+)

TIMS collisional cross section (sample type: Liver): 332.8 Å²
Structure (SMILES): CCCCC/C=C\C/C=C\CCCCCCCC(=O)OC[C@H](COC(=O)CCCCCCCCC/C=C\CCCCCCCC)OC(=O)CCCCCCC/C=C\CCCCCCCCC [TG 18:2_19:1_20:1] (ion (formula + adduct): [C60H108O6+NH4] 1+)

TIMS collisional cross section (sample type: Liver): 338.2 Å²
Structure (SMILES): CCCCC/C=C\C/C=C\CCCCCCCC(=O)OC[C@H](COC(=O)CCCCCCCCC/C=C\CCCCCCCCCC)OC(=O)CCCCCCC/C=C\CCCCCCCCC [TG 18:2_19:1_22:1] (ion (formula + adduct): [C62H112O6+NH4] 1+)

TIMS collisional cross section (sample type: plasma): 340.8 Å²
Structure (SMILES): CCCCC/C=C\C/C=C\CCCCCCCC(=O)OC[C@H](COC(=O)CCCCCCCCCCC/C=C\CCCCCCCC)OC(=O)CCCCCCCCC/C=C\CCCCCCCC [TG 18:2_20:1_22:1] (ion (formula + adduct): [C63H114O6+NH4] 1+)

TIMS collisional cross section (sample type: Liver): 341.4 Å²
Structure (SMILES): CCCCC/C=C\C/C=C\CCCCCCCCCC(=O)O[C@H](COC(=O)CCCCCCC/C=C\C/C=C\CCCCC)COC(=O)CCCCCCCCCCCCCCCCCCCCC [TG 18:2_20:2_22:0] (ion (formula + adduct): [C63H114O6+NH4] 1+)

TIMS collisional cross section (sample type: Liver): 335.7 Å²
Structure (SMILES): CCCCC/C=C\C/C=C\C/C=C\C/C=C\CCCCCC(=O)OC[C@@H](COC(=O)CCCCCCC/C=C\C/C=C\CCCCC)OC(=O)CCCCCCCCC/C=C\C/C=C\CCCCC [TG 18:2_20:2_22:4] (ion (formula + adduct): [C63H106O6+NH4] 1+)
